Test results as given in ChEMBL document CHEMBL4406812, “Synthesis of quinones with highlighted biological applications: A critical update on the strategies towards bioactive compounds with emphasis on lapachones” (Eur J Med Chem, 2019).
In brackets after ≈: the same amount, converted by molar mass.

Experiments:
[1] = test system: L02; experiment: Cytotoxicity against human LO2 cells assessed as reduction in cell viability after 48 hrs by MTT assay; format: functional, cell-based; conditions: L02, 48 h
[2] = test system: HepG2; experiment: Cytotoxicity against human HepG2 cells assessed as reduction in cell viability after 48 hrs by MTT assay; format: functional, cell-based; conditions: HepG2, 48 h
[3] = test system: KB; experiment: Cytotoxicity against human KB cells assessed as reduction in cell viability after 48 hrs by MTT assay; format: functional, cell-based
[4] = test system: LNCaP; experiment: Anticancer activity against human LNCAP cells after 72 to 102 hrs by MTT assay; format: functional, cell-based
[5] = test system: Vero; experiment: Cytotoxicity against African green monkey Vero cells assessed as reduction in cell viability after 48 hrs by MTT assay; format: cell-based; conditions: Chlorocebus sabaeus
[6] = test system: HeLa; experiment: Cytotoxicity against human HeLa cells assessed as reduction in cell viability after 48 hrs by MTT assay; format: functional, cell-based
[7] = test system: OVCAR-8; experiment: Cytotoxicity against human OVCAR8 cells assessed as reduction in cell viability after 48 hrs; format: functional, cell-based; conditions: OVCAR-8, 48 h
[8] = test system: PC-3; experiment: Cytotoxicity against human PC3 cells assessed as reduction in cell viability after 48 hrs; format: functional, cell-based; conditions: PC-3, 48 h
[9] = test system: HL-60; experiment: Cytotoxicity against human HL60 cells assessed as reduction in cell viability after 48 hrs; format: functional, cell-based; conditions: HL-60, 48 h
[10] = test system: MDA-MB-435; experiment: Cytotoxicity against human MDA-MB-435 cells assessed as reduction in cell viability after 48 hrs; format: functional, cell-based; conditions: MDA-MB-435, 48 h
[11] = test system: HCT-116; experiment: Cytotoxicity against human HCT116 cells assessed as reduction in cell viability after 48 hrs; format: functional, cell-based; conditions: HCT-116, 48 h
[12] = test system: SF-295; experiment: Cytotoxicity against human SF295 cells assessed as reduction in cell viability after 48 hrs; format: functional, cell-based; conditions: SF-295, 48 h
[13] = test system: SF-295; experiment: Anticancer activity against human SF295 cells by MTT assay; format: functional, cell-based
[14] = test system: HCT-116; experiment: Anticancer activity against human HCT116 cells by MTT assay; format: functional, cell-based
[15] = test system: HL-60; experiment: Anticancer activity against human HL60 cells by MTT assay; format: functional, cell-based
[16] = test system: OVCAR-8; experiment: Anticancer activity against human OVCAR8 cells by MTT assay; format: functional, cell-based
[17] = test system: Trypanosoma cruzi; experiment: Anti-parasitic activity against amastigote form of Trypanosoma cruzi after 24 hrs; format: functional, organism-based
[18] = test system: MDA-MB-435; experiment: Cytotoxicity against human MDA-MB-435 cells assessed as reduction in cell viability after 72 hrs by MTT assay; format: functional, cell-based; conditions: MDA-MB-435, 72 h
[19] = test system: HL-60; experiment: Cytotoxicity against human HL60 cells assessed as reduction in cell viability after 72 hrs by MTT assay; format: functional, cell-based; conditions: HL-60, 72 h
[20] = test system: SF-295; experiment: Cytotoxicity against human SF295 cells assessed as reduction in cell viability after 72 hrs by MTT assay; format: functional, cell-based; conditions: SF-295, 72 h
[21] = test system: HCT-8; experiment: Cytotoxicity against human HCT8 cells assessed as reduction in cell viability after 72 hrs by MTT assay; format: functional, cell-based; conditions: HCT-8, 72 h
[22] = test system: NCI-H358; experiment: Cytotoxicity against human NCI-H358 cells assessed as reduction in cell viability after 72 hrs by MTT assay; format: functional, cell-based; conditions: NCI-H358, 72 h
[23] = test system: Hs-578T; experiment: Cytotoxicity against human Hs 578T cells assessed as reduction in cell viability after 72 hrs by MTT assay; format: functional, cell-based
[24] = test system: SW-620; experiment: Cytotoxicity against human SW620 cells assessed as reduction in cell viability after 72 hrs by MTT assay; format: functional, cell-based; conditions: SW-620, 72 h
[25] = test system: Hs-578T; experiment: Cytotoxicity against human Hs578T cells assessed as reduction in cell viability after 72 hrs by MTT assay; format: functional, cell-based
[26] = test system: Trypanosoma cruzi; experiment: Anti-parasitic activity against Trypanosoma cruzi; format: functional, organism-based
[27] = test system: Trypanosoma cruzi; experiment: Trypanocidal activity against Trypanosoma cruzi Y strain bloodstream trypomastigotes after 24 hrs; format: functional, organism-based
[28] = test system: Trypanosoma cruzi; experiment: Trypanocidal activity against Trypanosoma cruzi Y strain bloodstream trypomastigotes isolated from infected Swiss mouse infected with monkey LLC-MK2 cells after 5 days by fluorescence spectrophotometric analysis; format: functional, organism-based; conditions: LLC-MK2, 120 h
[29] = Selectivity index, ratio of CC50 for monkey LLC-MK2 cells to IC50 for Trypanosoma cruzi Y strain bloodstream trypomastigotes; format: toxicity; conditions: read-out: Ratio IC50
[30] = test system: MDA-MB-435; experiment: Anticancer activity against human MDA-MB-435 cells; format: functional, cell-based
[31] = test system: Trypanosoma cruzi; experiment: Anti-parasitic activity against trypomastigotes form of Trypanosoma cruzi after 24 hrs; format: functional, organism-based
[32] = test system: Mycobacterium tuberculosis; experiment: Antimycobacterial activity against Mycobacterium tuberculosis H37Rv; format: functional
[33] = test system: SW-620; experiment: Anticancer activity against human SW620 cells; format: functional, cell-based
[34] = test system: MDA-MB-231; experiment: Anticancer activity against human MDA-MB-231 cells; format: functional, cell-based
[35] = test system: HL-60; experiment: Anticancer activity against human HL60 cells; format: functional, cell-based
[36] = test system: HCT-116; experiment: Anticancer activity against human HCT116 cells; format: functional, cell-based
[37] = test system: MOLT-4; experiment: Anticancer activity against human MOLT4 cells; format: functional, cell-based
[38] = test system: HCT-8; experiment: Anticancer activity against human HCT8 cells; format: functional, cell-based
[39] = test system: DU-145; experiment: Anticancer activity against human DU145 cells; format: functional, cell-based
[40] = test system: K562; experiment: Anticancer activity against human K562 cells; format: functional, cell-based
[41] = test system: SF-268; experiment: Anticancer activity against human SF268 cells; format: functional, cell-based
[42] = test system: Hs-578T; experiment: Anticancer activity against human Hs578T cells; format: functional, cell-based
[43] = test system: Jurkat; experiment: Anticancer activity against human Jurkat cells; format: functional, cell-based
[44] = test system: NCI-H460; experiment: Anticancer activity against human NCI-H460 cells; format: functional, cell-based
[45] = test system: SF-295; experiment: Anticancer activity against human SF295 cells; format: functional, cell-based
[46] = test system: UACC-62; experiment: Anticancer activity against human UACC62 cells; format: functional, cell-based
[47] = test system: PBMC; experiment: Cytotoxicity against human PBMC; format: cell-based
[48] = test system: MX1; experiment: Anticancer activity against human MX1 cells; format: functional, cell-based
[49] = test system: PC-3; experiment: Anticancer activity against human PC3 cells; format: functional, cell-based
[50] = test system: Trypanosoma cruzi; experiment: Anti-parasitic activity against epimastigotes form of Trypanosoma cruzi; format: functional, organism-based

## O=C1C(=O)c2ccccc2C2=C1C1(C(=O)Nc3ccc(F)cc31)N1NN=NC1=N2 (stereo not drawn)
[1]
  IC50: 2.9 to 36.3 µM
[2]
  IC50: 2900 to 36300 nM

## O=C1C(=O)c2ccccc2C2=C1CCCO2
[3]
  IC50: 3.2 µM
[4]
  IC50: 2760 nM
[5]
  IC50: 1000 nM
[6]
  IC50: 900 nM
[2]
  IC50: 900 nM

## CN1C(=O)C2(C3=C(N=C4N=NNN42)c2ccccc2C(=O)C3=O)c2cccc(F)c21 (stereo not drawn)
[1]
  IC50: 2.9 to 36.3 µM
[2]
  IC50: 2900 to 36300 nM

## O=C1C(=O)c2ccccc2C2=C1C1(C(=O)Nc3ccc(Br)cc31)N1NN=NC1=N2 (stereo not drawn)
[1]
  IC50: 2.9 to 36.3 µM
[2]
  IC50: 2900 to 36300 nM

## CC1(C)OC2=C(C(=O)C(=O)c3ccccc32)C1Nc1cccc(-c2cn(C[Se]c3ccccc3)nn2)c1 (stereo not drawn)
[7]
  IC50: < 100 nM
[8]
  IC50: < 100 nM
[9]
  IC50: < 100 nM
[10]
  IC50: < 100 nM
[11]
  IC50: < 100 nM
[12]
  IC50: < 100 nM

## CC1(C)O[C@@H]2O[C@@H](COC3C4=C(OC3(C)C)c3ccccc3C(=O)C4=O)[C@H]3OC(C)(C)O[C@H]3[C@@H]2O1 (stereo partly drawn)
[13]
  IC50: 230 nM
[14]
  IC50: 350 nM
[15]
  IC50: 230 nM
[16]
  IC50: 700 nM

## O=C1C(=O)c2ccccc2C2=C1C1(C(=O)Nc3cc(Br)ccc31)N1NN=NC1=N2 (stereo not drawn)
[1]
  IC50: 2.9 to 36.3 µM
[2]
  IC50: 2900 to 36300 nM

## CC1(C)Cc2c(c3ccccc3c3nc4c5cccnc5c5ncccc5c4nc23)O1
[17]
  IC50: 23 µM

## O=C1C(=O)c2c(O)cccc2C2=C1CCC(c1ccccc1)O2 (stereo not drawn)
[18]
  IC50: 1300 nM
[19]
  IC50: 1300 nM
[20]
  IC50: 1300 nM
[21]
  IC50: 1300 nM

## CC1(C)OC2=C(C(=O)C(=O)c3ccccc32)C1n1cc(-c2ccc(Nc3ccccn3)c3nsnc23)nn1 (stereo not drawn)
[18]
  IC50: 590 nM
[22]
  IC50: 700 nM
[23]
  IC50: 590 nM
[20]
  IC50: 740 nM
[24]
  IC50: 550 nM
[25]
  IC50: 570 nM

## O=C1C(=O)c2ccccc2C2=C1C1(C(=O)Nc3ccccc31)N1NN=NC1=N2 (stereo not drawn)
[1]
  IC50: 2.9 to 36.3 µM
[2]
  IC50: 2900 to 36300 nM

## O=C1C(=O)c2ccccc2C2=C1C1(C(=O)Nc3c(C(F)(F)F)cccc31)N1NN=NC1=N2 (stereo not drawn)
[1]
  IC50: 2.9 to 36.3 µM
[2]
  IC50: 2900 to 36300 nM

## Cc1cc(I)c2c(c1)C(=O)C=CC2=O
[26]
  IC50: 500 nM

## O=C1C(=O)c2ccccc2C2=C1C1(C(=O)Nc3c(Br)cccc31)N1NN=NC1=N2 (stereo not drawn)
[1]
  IC50: 2.9 to 36.3 µM
[2]
  IC50: 2900 to 36300 nM

## O=C(Cn1ccnc1[N+](=O)[O-])NCc1ccccc1 [BENZNIDAZOLE]
[27]
  IC50: 9.68 µM
[28]
  IC50: 19.9 µM
[29]
  selectivity ratio: 16.8
[17]
  IC50: 3.3 µM

## COc1ccc(/N=C2\C(=O)C3=C(OC(C)(C)CC3)c3ccccc32)cc1
[30]
  IC50: 10 nM

## O=C1C=CC(=O)c2c(Sc3ccc(Br)cc3)cccc21
[31]
  IC50: 6.6 µM

## CC1(C)CCC2=C(O1)c1ccccc1C(=O)C2=O [LAPACHONE]
[32]
  MIC: 100 µg/mL (≈ 413 µM)

## O=C1C=CC(=O)c2c(Sc3ccccc3)cccc21
[31]
  IC50: 12.4 µM

## Cc1cc(C)n2c1C(c1ccc(OCc3cn(C4C5=C(OC4(C)C)c4ccccc4C(=O)C5=O)nn3)cc1)=C1C=CC=[N+]1[B-]2(F)F (stereo not drawn)
[33]
  IC50: 340 to 2170 nM
[34]
  IC50: 340 to 2170 nM
[35]
  IC50: 340 to 2170 nM
[36]
  IC50: 340 to 2170 nM
[37]
  IC50: 340 to 2170 nM
[38]
  IC50: 340 to 2170 nM
[39]
  IC50: 340 to 2170 nM
[40]
  IC50: 340 to 2170 nM
[30]
  IC50: 340 to 2170 nM
[41]
  IC50: 340 to 2170 nM
[42]
  IC50: 340 to 2170 nM
[43]
  IC50: 340 to 2170 nM
[44]
  IC50: 340 to 2170 nM
[45]
  IC50: 340 to 2170 nM
[46]
  IC50: 340 to 2170 nM
[47]
  IC50: 3.26 µM
[48]
  IC50: 340 to 2170 nM
[49]
  IC50: 340 to 2170 nM

## O=C1C(=O)c2ccccc2C2=C1C1(C(=O)N(c3ccccc3)c3ccccc31)N1NN=NC1=N2 (stereo not drawn)
[1]
  IC50: 2.9 to 36.3 µM
[2]
  IC50: 2900 to 36300 nM

## CCC(C)OP(=O)(N/N=C1\C(=O)C2=C(OC(C)(C)CC2)c2ccccc21)OC(C)CC (stereo not drawn)
[50]
  IC50: 19 µM

## Cc1ccc(Sc2cccc3c2C(=O)C=CC3=O)cc1
[31]
  IC50: 2.5 µM

## CC1(C)CCc2c(c3ccccc3c3nc4c5cccnc5c5ncccc5c4nc23)O1
[17]
  IC50: 4.9 µM

## COc1ccc(I)c2c1C(=O)C=C(C)C2=O
[27]
  IC50: 7.57 µM
